Patent US20150045387A1, “Bi-Aromatic And Tri-Aromatic Compounds As NADPH Oxidase 2 (Nox2) Inhibitors” (The University of Surrey, priority 2011, published 2015)

Tests used:
Assay type in all cases: cell-based
[1] = test system: human pulmonary endothelial cells (HPMEC); experiment: normal versus high glucose level-induced O2.- production, lucigenin-chemiluminescence; details: LMH001 5 μM, 24 h in culture, NADPH 100 μM
Experimental: FIG. 11 is a graph showing the effects of LMH001 in culture on normal glucose level versus high glucose level-induced O2.^− production by human pulmonary endothelial cells (HPMEC). HPMEC were cultured in the medium with normal level of glucose (5 mM) or with high level of glucose (40 mM) in the presence or absence of LMH001 (5 μM) for 24 h. Cells were harvested and cell homogenates were used for measuring NADPH (100 μM)-dependent O2.^− production by lucigenin-chemiluminescence (n=3 experiments).
(§1) O2^− production by different cell types was measured using lucigenin (5 μM)-chemiluminescence. A microplate luminometer (LumiStar, BMG) was used, which allows the examination of 96 samples at the same time with kinetic reading facilities. […] Dark-adapted lucigenin (5 μM) was added into the well through an auto-dispenser located in the dark chamber just before reading. The light emission was recorded over a 60 minute period and expressed as arbitrary MLU measured by the illuminometer. Each experiment was performed in triplicate and the mean of 3 blank readings was subtracted from each corrected value for each reading. […]
O2^− production was also studied using total cell homogenate (for the endothelial cells and the fibroblasts). […] Soluble protein concentration was determined using a kit from Bio-Rad Laboratories Ltd. (Hertfordshire, U.K.). […]

[2] = test system: human lung alveolar epithelial cancer cells (A549 cells); experiment: EGF-induced O2.- production in A549 cells, lucigenin-chemiluminescence; details: LMH001 5 μM, 24 h
Experimental: (§2) A549 cells were seeded at equal number the day before experiments and then stimulated with or without […] (EGF, 10 ng/ml) for 24 h in the presence or absence of LMH001 (5 μM). Cells were then trypsinized and counted. Cell homogenates were used for measuring O2.^− production by lucigenin-chemiluminescence in the presence of NADPH (100 μM).
(§3) A549 is a human lung adenocarcinoma epithelial cell line. A549 cells were grown in DMEM, containing 10% (v/v) heat inactivated foetal calf serum, 100 U/mL penicillin and […] streptomycin, in a humidified atmosphere at 37° C. with 5% CO2.
as §1

[3] = test system: mouse microvascular endothelial cells (SVEC4-10); experiment: cell viability by trypan blue exclusion and viable cell number counting, SVEC4-10; details: SVEC4-10, LMH001 5 and 10 μM, 24 h, trypan blue exclusion
Experimental: FIG. 7 is a graph showing no cytotoxicity of LMH001 on living mouse microvascular endothelial cells (SVEC4-10) and human liver hepatocyte cells (HepG2), assessed by trypan blue exclusion and viable cell number counting. Cells were cultured with LMH001 (5 and 10 μM) for 24 h. Cell viabilities of SVEC4-10 cells and HepG2 cells in the presence of LMH001 (5 and 10 μM) were expressed as % of alive cells compared to cells in the absence of LMH001 (control, 100%). Results are presented as mean±SD (n=3).
The mouse lymph node microvascular endothelial cell line (SVEC4-10) was from the American Type Culture Collection (CRL-2167) and grown in DMEM, containing 10% (v/v) heat inactivated foetal calf serum, 100 U/mL penicillin and […] streptomycin, in a humidified atmosphere at 37° C. with 5% CO2.
Cell viability and membrane integrity in the presence and absence of LMH001 were assessed using the trypan blue exclusion assay as described previously (15). Briefly, cells (1×10^6) were seeded onto 10 cm^2 culture dishes and allowed to adhere for 4 hours in 10% (v/v) FCS medium. […] At the time of experiment, cells were harvested by 0.25% Trypsin/EDTA, pelleted, resuspended in serum free medium and counted using a haemocytometer in the presence of trypan blue (0.4%) solution. The number of viable cells was calculated as a percentage of total cells.

[4] = test system: human lung alveolar epithelial cancer cells (A549 cells); experiment: EGF-induced cell proliferation of A549 cells (cell counting); details: LMH001 5 μM, 24 h
Experimental: as §2, §3

[5] = no EGF, compared to medium only

Q: What does the source list for `O=C(OCc1cccc(O)c1O)c1ccc(O)c(CO)c1` [LMH001, (2,3,-dihydroxyphenyl)methyl 4-hydroxy-3-(hydroxymethyl)benzoate]?
A: cell O2.- production under normal glucose levels ([1]; glucose 5 mM): no significant effect; high glucose level-induced O2.- production ([1]; glucose 40 mM): inhibited completely; EGF-induced O2.- production ([2]; EGF 10 ng/ml): inhibited completely; A549 cell O2.- production, LMH001 alone [2, 5]: no significant effect; cell viability (% of alive cells vs control) [3]: no significant difference; EGF-induced A549 cell proliferation ([4]; EGF 10 ng/ml, cells counted): inhibited completely; A549 cell proliferation, LMH001 alone [4, 5]: no significant effect
